This is an account of results in ChEMBL document CHEMBL5723379, “Affinity On-target Cellular Literature for EUbOPEN Chemogenomic Library” (2024).

Structures are written as SMILES.

The target of one assay is Bile acid receptor (Homo sapiens, UniProt Q96RI1). Kind of assay: Affinity On-target Cellular interaction: (Reporter gene assay (HEK293T cells)) EUB0000182b NR1H4. More on the design: mode of action Agonist, recommended concentration 1 uM. It counts as functional, cell-based, HEK-293T. On the technique in general: Reporter assays use an easily measured gene product as a stand-in for the process of interest.
Chain of Bile acid receptor (Q96RI1 whole entry): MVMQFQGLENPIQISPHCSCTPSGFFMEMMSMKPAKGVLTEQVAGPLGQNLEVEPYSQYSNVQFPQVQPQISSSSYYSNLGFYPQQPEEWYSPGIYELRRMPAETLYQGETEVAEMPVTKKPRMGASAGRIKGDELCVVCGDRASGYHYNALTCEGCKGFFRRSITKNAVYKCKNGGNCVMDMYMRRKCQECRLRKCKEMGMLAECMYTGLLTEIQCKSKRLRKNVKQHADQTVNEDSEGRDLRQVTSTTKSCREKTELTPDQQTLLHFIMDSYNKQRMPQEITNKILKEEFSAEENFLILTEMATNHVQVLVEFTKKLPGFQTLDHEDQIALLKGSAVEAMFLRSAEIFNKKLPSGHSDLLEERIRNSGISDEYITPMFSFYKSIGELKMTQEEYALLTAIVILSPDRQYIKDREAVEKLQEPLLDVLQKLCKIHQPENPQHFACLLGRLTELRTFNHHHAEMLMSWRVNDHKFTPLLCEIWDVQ

For assay [1], the target named is T1, Peroxisome proliferator-activated receptor alpha (Homo sapiens, UniProt Q07869).
T1 sequence (Q07869 whole entry): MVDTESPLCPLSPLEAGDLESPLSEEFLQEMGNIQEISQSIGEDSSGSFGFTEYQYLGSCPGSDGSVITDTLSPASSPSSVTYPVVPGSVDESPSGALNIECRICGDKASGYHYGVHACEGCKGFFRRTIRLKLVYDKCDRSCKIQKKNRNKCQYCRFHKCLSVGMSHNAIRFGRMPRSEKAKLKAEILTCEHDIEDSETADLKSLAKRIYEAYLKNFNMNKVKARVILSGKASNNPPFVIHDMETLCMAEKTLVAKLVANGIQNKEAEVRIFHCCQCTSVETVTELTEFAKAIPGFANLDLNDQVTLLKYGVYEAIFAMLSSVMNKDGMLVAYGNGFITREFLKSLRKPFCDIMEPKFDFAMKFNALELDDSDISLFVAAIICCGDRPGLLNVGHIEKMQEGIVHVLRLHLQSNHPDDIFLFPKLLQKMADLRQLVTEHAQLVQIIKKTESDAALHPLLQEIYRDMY
Kind of assay: Affinity On-target Cellular interaction: (Reporter gene assay (HEK293T cells)) EUB0000581a PPARA. The assay is classed as functional, cell-based, HEK-293T. Also noted: mode of action Agonist, recommended concentration 1 uM.

For assay [2], the target named is T2, Peroxisome proliferator-activated receptor gamma (Homo sapiens, UniProt P37231).
T2 sequence (P37231 whole entry): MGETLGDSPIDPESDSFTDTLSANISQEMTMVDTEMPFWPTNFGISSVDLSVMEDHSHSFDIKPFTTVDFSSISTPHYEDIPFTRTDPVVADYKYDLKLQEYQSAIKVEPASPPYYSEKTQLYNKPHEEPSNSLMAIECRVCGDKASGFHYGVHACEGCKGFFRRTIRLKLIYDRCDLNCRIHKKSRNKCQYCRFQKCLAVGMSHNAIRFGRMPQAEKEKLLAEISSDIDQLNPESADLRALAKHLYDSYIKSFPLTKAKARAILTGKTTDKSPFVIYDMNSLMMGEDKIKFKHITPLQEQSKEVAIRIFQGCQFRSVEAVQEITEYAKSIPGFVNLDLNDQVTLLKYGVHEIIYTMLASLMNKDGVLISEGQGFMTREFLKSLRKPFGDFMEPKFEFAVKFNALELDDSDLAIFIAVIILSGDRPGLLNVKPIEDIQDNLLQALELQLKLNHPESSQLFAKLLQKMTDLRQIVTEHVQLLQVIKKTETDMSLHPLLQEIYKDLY
Kind of assay: Affinity On-target Cellular interaction: (Reporter gene assay (HEK293T cells)) EUB0000188b PPARG. It counts as functional, cell-based, HEK-293T. More on the design: mode of action Agonist, recommended concentration 1 uM.

The target of assay [3] is T1, Peroxisome proliferator-activated receptor alpha. Kind of assay: Affinity On-target Cellular interaction: (Reporter gene assay (HEK293T cells)) EUB0000188b PPARA. The assay is classed as functional, cell-based, HEK-293T. More on the design: mode of action Agonist, recommended concentration 1 uM.
Assay [4] has as its target T3, Peroxisome proliferator-activated receptor delta (Homo sapiens, UniProt Q03181).
T3 sequence (Q03181 whole entry): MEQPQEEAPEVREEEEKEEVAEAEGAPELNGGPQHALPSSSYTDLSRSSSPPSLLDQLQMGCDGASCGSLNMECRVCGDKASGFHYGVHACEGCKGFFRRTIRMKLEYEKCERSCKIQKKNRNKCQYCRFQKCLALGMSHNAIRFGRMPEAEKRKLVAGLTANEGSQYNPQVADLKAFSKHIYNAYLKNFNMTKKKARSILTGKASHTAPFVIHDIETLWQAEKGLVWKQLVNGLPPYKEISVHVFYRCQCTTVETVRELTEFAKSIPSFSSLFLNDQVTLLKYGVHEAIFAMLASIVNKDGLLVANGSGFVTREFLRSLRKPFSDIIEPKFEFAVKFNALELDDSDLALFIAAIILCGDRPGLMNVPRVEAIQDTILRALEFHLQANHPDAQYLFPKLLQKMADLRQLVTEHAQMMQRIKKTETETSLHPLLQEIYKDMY
Nature of the assay: Affinity On-target Cellular interaction: (Reporter gene assay (HEK293T cells)) EUB0000188b PPARD. It counts as functional, cell-based, HEK-293T. More on the design: mode of action Agonist, recommended concentration 1 uM.

A further assay addresses Vitamin D3 receptor (Homo sapiens, UniProt P11473). Nature of the assay: Affinity On-target Cellular interaction: (Reporter gene assay (HEK293T cells)) EUB0000583a VDR. The assay is classed as functional, cell-based, HEK-293T. Also noted: mode of action Agonist, recommended concentration 1 uM.
In assay [5] the target is Nuclear receptor subfamily 1 group I member 3 (Homo sapiens, UniProt Q14994). Nature of the assay: Affinity On-target Cellular interaction: (Reporter gene assay (HEK293T cells)) EUB0000551aCl NR1I3. It counts as functional, cell-based, HEK-293T. Also noted: mode of action Antagonist, recommended concentration 1 uM.
Chain of Nuclear receptor subfamily 1 group I member 3 (Q14994 whole entry): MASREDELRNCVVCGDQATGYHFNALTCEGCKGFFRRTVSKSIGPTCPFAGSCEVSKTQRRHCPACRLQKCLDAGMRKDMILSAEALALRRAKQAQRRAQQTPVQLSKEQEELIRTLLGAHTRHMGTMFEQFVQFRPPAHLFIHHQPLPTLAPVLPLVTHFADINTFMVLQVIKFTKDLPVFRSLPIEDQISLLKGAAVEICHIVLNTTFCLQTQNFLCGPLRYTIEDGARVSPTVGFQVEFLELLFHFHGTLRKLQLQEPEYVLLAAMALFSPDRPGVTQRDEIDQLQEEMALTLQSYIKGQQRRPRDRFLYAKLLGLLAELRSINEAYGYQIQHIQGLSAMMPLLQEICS
The target in assay [6] is T3, Peroxisome proliferator-activated receptor delta. Kind of assay: Affinity On-target Cellular interaction: (Reporter gene assay (HEK293T cells)) EUB0001151a PPARD. It counts as functional, cell-based, HEK-293T. Also noted: mode of action Antagonist, recommended concentration 1 uM.
The target of assay [7] is Nucleotide triphosphate diphosphatase NUDT15 (Homo sapiens) (UniProt Q9NV35). Nature of the assay: Affinity On-target Cellular interaction: (Cellular thermal shift assay, HL-60 cells) EUB0002330a NUDT15. More on the design: recommended concentration 1 uM. The conditions noted are these: Affinity On-target Cellular Source Knowledge https://www.nature.com/articles/s41589-020-0592-z. The assay is classed as functional, cell-based.
Chain of Nucleotide triphosphate diphosphatase NUDT15 (Homo sapiens) (Q9NV35 whole entry): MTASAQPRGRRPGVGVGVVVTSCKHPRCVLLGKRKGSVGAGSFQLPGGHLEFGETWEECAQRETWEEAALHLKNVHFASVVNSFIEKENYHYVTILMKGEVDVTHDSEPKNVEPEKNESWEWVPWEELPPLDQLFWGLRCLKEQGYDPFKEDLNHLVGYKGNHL

Assay [8] concerns the target T3, Peroxisome proliferator-activated receptor delta.
The target in assay [9] is T4, Oxysterols receptor LXR-alpha (Homo sapiens, UniProt Q13133).
T4 sequence (Q13133 whole entry): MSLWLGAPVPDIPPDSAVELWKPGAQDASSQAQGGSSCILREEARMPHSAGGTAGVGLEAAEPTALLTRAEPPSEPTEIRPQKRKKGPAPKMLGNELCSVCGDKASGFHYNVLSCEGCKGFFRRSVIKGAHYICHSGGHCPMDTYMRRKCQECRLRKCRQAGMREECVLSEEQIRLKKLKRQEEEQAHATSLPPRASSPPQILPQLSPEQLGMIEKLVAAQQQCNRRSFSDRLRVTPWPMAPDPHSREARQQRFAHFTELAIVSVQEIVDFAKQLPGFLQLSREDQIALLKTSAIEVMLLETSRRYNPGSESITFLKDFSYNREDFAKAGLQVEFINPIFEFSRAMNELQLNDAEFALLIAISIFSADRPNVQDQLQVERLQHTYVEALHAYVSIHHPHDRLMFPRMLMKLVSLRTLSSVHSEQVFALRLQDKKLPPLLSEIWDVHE
Kind of assay: Affinity On-target Cellular interaction: (Reporter gene assay (HEK293T cells)) EUB0000082b NR1H3. It counts as functional, cell-based, HEK-293T. Also noted: mode of action Agonist, recommended concentration 3 uM.

For assay [10], the target named is T5, Oxysterols receptor LXR-beta (Homo sapiens, UniProt P55055).
T5 sequence (P55055 whole entry): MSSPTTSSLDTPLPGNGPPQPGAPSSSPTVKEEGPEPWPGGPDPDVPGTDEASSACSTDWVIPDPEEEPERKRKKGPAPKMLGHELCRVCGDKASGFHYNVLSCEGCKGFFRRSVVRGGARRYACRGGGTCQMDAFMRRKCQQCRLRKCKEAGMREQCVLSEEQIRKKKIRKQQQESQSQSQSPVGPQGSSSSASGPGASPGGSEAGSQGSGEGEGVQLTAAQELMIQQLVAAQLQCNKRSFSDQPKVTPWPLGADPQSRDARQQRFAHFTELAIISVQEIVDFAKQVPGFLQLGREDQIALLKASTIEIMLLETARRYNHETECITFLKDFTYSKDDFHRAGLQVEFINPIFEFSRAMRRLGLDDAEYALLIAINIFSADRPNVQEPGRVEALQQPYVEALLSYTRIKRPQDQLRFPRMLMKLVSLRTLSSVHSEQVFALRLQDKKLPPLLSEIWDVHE

In assay [11] the target is Retinoic acid receptor alpha (Homo sapiens, UniProt P10276). Nature of the assay: Affinity On-target Cellular interaction: (Reporter gene assay (HEK293T cells)) EUB0000565a RARA. The assay is classed as functional, cell-based, HEK-293T. Also noted: mode of action Agonist, recommended concentration 1 uM.
Chain of Retinoic acid receptor alpha (P10276 whole entry): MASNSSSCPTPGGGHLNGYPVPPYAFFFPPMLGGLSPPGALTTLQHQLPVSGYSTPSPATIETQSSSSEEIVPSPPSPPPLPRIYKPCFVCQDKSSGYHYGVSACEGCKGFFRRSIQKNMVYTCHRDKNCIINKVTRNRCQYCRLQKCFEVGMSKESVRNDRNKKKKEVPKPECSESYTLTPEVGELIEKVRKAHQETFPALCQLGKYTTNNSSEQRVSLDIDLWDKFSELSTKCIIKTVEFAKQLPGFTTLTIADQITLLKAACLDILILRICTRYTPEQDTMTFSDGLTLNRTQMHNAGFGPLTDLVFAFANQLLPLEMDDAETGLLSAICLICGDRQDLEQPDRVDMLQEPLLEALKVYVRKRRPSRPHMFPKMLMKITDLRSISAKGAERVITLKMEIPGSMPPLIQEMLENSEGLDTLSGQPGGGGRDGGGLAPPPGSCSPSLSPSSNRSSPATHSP
The target in assay [12] is T2, Peroxisome proliferator-activated receptor gamma. Kind of assay: Affinity On-target Cellular interaction: (Reporter gene assay (HEK293T cells)) EUB0000571a PPARG. It counts as functional, cell-based, HEK-293T. More on the design: mode of action Agonist, recommended concentration 1 uM.

Chain of Vitamin D3 receptor (P11473 whole entry): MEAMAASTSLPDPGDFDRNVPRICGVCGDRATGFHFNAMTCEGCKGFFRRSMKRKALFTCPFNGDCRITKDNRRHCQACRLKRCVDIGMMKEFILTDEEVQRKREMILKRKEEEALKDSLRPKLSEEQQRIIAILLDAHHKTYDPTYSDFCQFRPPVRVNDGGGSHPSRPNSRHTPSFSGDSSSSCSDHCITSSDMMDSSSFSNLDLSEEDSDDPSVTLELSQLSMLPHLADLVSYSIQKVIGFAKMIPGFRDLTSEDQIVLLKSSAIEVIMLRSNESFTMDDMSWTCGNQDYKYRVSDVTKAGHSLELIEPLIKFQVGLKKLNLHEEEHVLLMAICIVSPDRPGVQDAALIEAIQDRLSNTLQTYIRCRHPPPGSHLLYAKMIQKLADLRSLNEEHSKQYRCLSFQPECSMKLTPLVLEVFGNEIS

What is called EC50 is the midpoint of the concentration-response curve. A higher EC50 goes with lower potency in that assay. In the case of `COC(=O)/C=C/c1cccc(N(Cc2ccc(-c3ccc(N(C)C)cc3)cc2)C(=O)C2CCCCC2)c1` [FEXARAMINE], a half-maximal effect at Bile acid receptor (EC50) was put at 960 nM.

Regarding `CC(C)c1ccc(CC(=O)N2CCC[C@@H](c3cccc(OC(C)(C)C(=O)O)c3)C2)cc1`, the EC50 in assay [1] worked out at 50 nM.

As for `CCCc1c(OCCCOc2ccc(OCC(=O)O)cc2)ccc(C(C)=O)c1O`, the EC50 in assay [2] was 980 nM; in assay [3], 1000 nM; in assay [4], 15 nM.

`C=C1/C(=C\C=C2/CCC[C@]3(C)[C@@H]([C@H](C)/C=C/[C@H](C)C(C)C)CC[C@@H]23)C[C@@H](O)C[C@@H]1O` [DOXERCALCIFEROL] displayed an EC50 on Vitamin D3 receptor of 960 nM.

Usually IC50 stands for the concentration at which inhibition is half-maximal. Compound `Cc1cccc(CN2CCN(C(c3ccccc3)c3ccc(Cl)cc3)CC2)c1` (centres undefined) displayed an IC50 in [5] of 63 nM.

Consider `O=C(NCCS(=O)(=O)c1ccc(C(F)(F)F)cn1)c1ccc(Cl)cc1`, for which, in assay [6], the IC50 was determined as 100 nM.

As for `O=C(c1ccc2[nH]ccc2c1)N1CCN(S(=O)(=O)c2ccc3[nH]c(=O)oc3c2)CC1`, the K in assay [7] was 280 nM.

`O=C(O)CCCc1cc2cc(Cl)ccc2n1S(=O)(=O)c1ccc2ncsc2c1` [LANIFIBRANOR] displayed an EC50 in [8] of 900 nM.

As for `Fc1ccc(-c2c3cccc(C(F)(F)F)c3nn2Cc2ccc(F)cc2Cl)cc1` [LXR-623], the EC50 in [9] came to 7000 nM; in assay [10], 4000 nM.

For the compound `CC1(C)C(=O)C(C)(C)c2cc(C(=O)Nc3ccc(C(=O)O)cc3)ccc21`, the EC50 in assay [11] was found to be 110 nM.

In turn, `COC(=O)C(Cc1ccc(OCCn2c(=O)sc3cc(C(=O)c4ccccc4)ccc32)cc1)C(=O)OC` displayed an EC50 in [12] of 42 nM.
